{
  "source": "patent US6610735B2",
  "about": "“Method, compositions and kits for increasing the oral bioavailability of pharmaceutical agents” (Baker Norton Pharmaceuticals, Inc., priority 1995, dated 2003)",
  "key": {"[1]": {"test": "Serum paclitaxel after IV or oral paclitaxel with/without oral cyclosporin (Example 1)", "assay_type": "in vivo, Sprague Dawley rats"}, "[2]": {"conditions": "rat, in vivo, iv"}, "[3]": {"conditions": "rat, in vivo, po"}, "[4]": {"conditions": "in vivo, po; cited from earlier work"}, "[5]": {"test": "Total radioactivity and unchanged paclitaxel pharmacokinetics, rats n = 10 (Tables 5A, 5B)"}, "[6]": {"test": "Whole blood and urine radioactivity after radiolabeled paclitaxel with/without cyclosporin (Example 3)"}, "[7]": {"test": "Whole blood radioactivity of oral 3H-etoposide with oral ketoconazole (Example 7, NP960501)", "assay_type": "in vivo, rats", "conditions": "ketoconazole 2, 10, 50 mg/kg oral"}, "[8]": {"conditions": "male, Sprague-Dawley, rat, in vivo"}, "[9]": {"test_system": "highly resistant human KB carcinoma cells", "conditions": "cited from earlier work"}, "[10]": {"test": "Whole blood radioactivity of 3H-etoposide with/without oral cyclosporin (Example 6, NP960102)", "assay_type": "in vivo, rats", "conditions": "Grp C: CsA 5/PO, then Etoposide 1/PO + CsA 5/PO"}},
  "data": [
    {"smiles": "CC(=O)O[C@H]1C(=O)[C@@]2(C)[C@H]([C@H](OC(=O)c3ccccc3)[C@]3(O)C[C@H](OC(=O)[C@H](O)[C@@H](NC(=O)c4ccccc4)c4ccccc4)C(C)=C1C3(C)C)[C@]1(OC(C)=O)CO[C@@H]1C[C@@H]2O", "note": "[Paclitaxel, paclitaxel]", "values": [
      {"measurement": "bioavailability of the paclitaxel in serum", "setting": "[1]; oral paclitaxel in the absence of cyclosporin", "result": "less than 1%"},
      {"measurement": "bioavailability of the paclitaxel in serum", "setting": "[1]; third group: cyclosporin 1 h prior to and with oral paclitaxel", "result": "6-7%"},
      {"measurement": "% Dose in urine (4-24 hr)", "setting": "[2]", "result": 2.2, "unit": "% Dose"},
      {"measurement": "F (%) Based on AUC0-00, total radioactivity", "setting": "[3]", "result": 16.4, "unit": "%"},
      {"measurement": "absorbed when administered orally", "setting": "[4]", "result": "less than 1%"},
      {"measurement": "AUC0-24hr, unchanged paclitaxel", "setting": "[5]; PO + CsA", "result": 4270, "unit": "ng·h/mL"},
      {"measurement": "AUC0-[…], unchanged paclitaxel", "setting": "[5]; PO + CsA", "result": 5410, "unit": "ng·h/mL"},
      {"measurement": "AUC0-[…], unchanged paclitaxel", "setting": "[5]; PO Dose", "result": 349, "unit": "ng·h/mL"},
      {"measurement": "AUC0-24hr, unchanged paclitaxel", "setting": "[5]; PO Dose 9 mg/kg", "result": 314, "unit": "ng·h/mL"},
      {"measurement": "AUC0-00, total radioactivity", "setting": "[5]; Paclitaxel Oral 9 mg/kg", "result": 4.5, "unit": "μg equiv.hr/mL"},
      {"measurement": "AUC0-24hr, total radioactivity", "setting": "[5]; Paclitaxel Oral 9 mg/kg", "result": 1.4, "unit": "μg equiv.hr/mL"},
      {"measurement": "AUC0-00, total radioactivity", "setting": "[5]; Paclitaxel Oral + CsA", "result": 15.0, "unit": "μg equiv.hr/mL"},
      {"measurement": "AUC0-24hr, total radioactivity", "setting": "[5]; Paclitaxel Oral + CsA 5 mg/kg 1 hr prior to and concomitantly", "result": 8.1, "unit": "μg equiv.hr/mL"},
      {"measurement": "AUC0-24, total radioactivity in blood", "setting": "[6]; PO (B)", "result": 3.2, "unit": "μg eq × hr/ml"},
      {"measurement": "Tmax", "setting": "[6]; PO (B) column as printed", "result": 25, "unit": "h"},
      {"measurement": "AUC0-24, total radioactivity in blood", "setting": "[6]; PO+CsA (C), CsA 1 hr prior to and simultaneously", "result": 12.1, "unit": "μg eq × hr/ml"}
    ]},
    {"smiles": "CC(=O)N1CCN(c2ccc(OCC3COC(Cn4ccnc4)(c4ccc(Cl)cc4Cl)O3)cc2)CC1", "note": "(centres unmarked) [Ketoconazole, ketoconazole]", "values": [
      {"measurement": "effect on oral absorption of etoposide compared to etoposide alone", "setting": "[7]", "result": "did not enhance the oral absorption of etoposide"},
      {"measurement": "dose-response of oral absorption of radioactivity", "setting": "[8]", "result": "no further increase in oral absorption of radioactivity"},
      {"measurement": "reversal of MDR", "setting": "[9]", "result": "reverse MDR"}
    ]},
    {"smiles": "COc1cc([C@@H]2c3cc4c(cc3[C@@H](O[C@@H]3O[C@@H]5CO[C@@H](C)O[C@H]5[C@H](O)[C@H]3O)[C@H]3COC(=O)[C@H]23)OCO4)cc(OC)c1O", "note": "[Etoposide, etoposide]", "values": [
      {"measurement": "F%", "setting": "[10]", "result": "about 96%"}
    ]}
  ]
}
